Each structure is given as a SMILES string.

For orientation: Kp means the ratio of the level in a tissue or fluid to that in plasma or blood.

Data set [1] has as its target JAK3 (Homo sapiens (Human), UniProt P52333). Nature of the data set: Biochemical JAK3 kinase assay (LanthaScreen). To be noted: for JAK3 (pKi)-JAK1 (pKi): selectivity JAK3 over JAK1, difference of pKi. The method, boiled down: (§1)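 GST-JAK + GFP-STAT1 peptide, HEPES pH 7.5/MgCl2/EGTA/Brij-35 buffer; cpd preincubation 1 h RT; ATP start, 1 h RT; stop with 10 mM EDTA + 2 nM Tb-anti-pSTAT1; TR-FRET 520/495. 4-parameter IC50 → pKi (Cheng-Prusoff).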
Background: In TR-FRET formats the signal depends on donor and acceptor labels being close together.

Data set [2] deals with JAK2 (Homo sapiens (Human), UniProt O60674). Nature of the data set: Biochemical JAK2 kinase assay (LanthaScreen). The method, boiled down:
as §1

The subject of data set [3] is Caco-2 cell monolayers. Nature of the data set: Caco-2 permeation assay. It counts as in vitro ADME. To be noted: 5 μM, A-B direction, with Verapamil (25 μM). The method, boiled down:
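Passive A-to-B permeability with P-gp inhibited by verapamil (25 μM); compound at 5 μM, n=2. Both compartments sampled at t0 and t120 and quantified by LC-MS/MS, giving apparent permeability in cm/sec from flux, area and concentration.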
Background: Caco-2 cells form a polarised layer with tight junctions and transporters.

Data set [4] relates to IL-2 stimulated STAT5 phosphorylation in Tall-1 human T cell line (JAK3). The data set can be described thus: Cellular JAK3 potency assay: inhibition of IL-2 stimulated pSTAT5 in Tall-1 T cells. It counts as cell-based. To be noted: IL-2 stimulated pSTAT5, Tall-1 T cells. The method, boiled down: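 AlphaLISA SureFire Ultra measures STAT5 Tyr694/699 phosphorylation in lysed Tall-1 human T cells. Cells were exposed to compound for 1 h at 37 °C before a 30 min IL-2 challenge (300 ng/ml final). Values are pIC50 means with standard deviation from signal-versus-concentration curves.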

Data set [5] has as its target Tyk2 (Homo sapiens (Human), UniProt P29597). Nature of the data set: Biochemical Tyk2 kinase assay (LanthaScreen). The method, boiled down:
as §1

For data set [6], the target named is JAK1 (Homo sapiens (Human), UniProt P23458). The data set can be described thus: Biochemical JAK1 kinase assay (LanthaScreen). The method, boiled down:
as §1

Data set [7] is described as follows: Colon and plasma mouse pharmacokinetics. It counts as in vivo. To be noted: mouse, colon tissue / plasma; male Balb/c mice, 10 mg/kg PO; ratio of the colon AUC to the plasma AUC. The method, boiled down: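 Male Balb/c mice given 10 mg/kg PO in 1% HPMC + 0.1% Tween-80; plasma, colon tissue and colon contents taken at 0.5, 2 and 6 h, quantified by LC/MS/MS. Non-compartmental analysis on means of 2 animals/time point; colon:plasma ratio taken as colon AUC over plasma AUC.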

Chain of JAK2 (O60674 whole entry): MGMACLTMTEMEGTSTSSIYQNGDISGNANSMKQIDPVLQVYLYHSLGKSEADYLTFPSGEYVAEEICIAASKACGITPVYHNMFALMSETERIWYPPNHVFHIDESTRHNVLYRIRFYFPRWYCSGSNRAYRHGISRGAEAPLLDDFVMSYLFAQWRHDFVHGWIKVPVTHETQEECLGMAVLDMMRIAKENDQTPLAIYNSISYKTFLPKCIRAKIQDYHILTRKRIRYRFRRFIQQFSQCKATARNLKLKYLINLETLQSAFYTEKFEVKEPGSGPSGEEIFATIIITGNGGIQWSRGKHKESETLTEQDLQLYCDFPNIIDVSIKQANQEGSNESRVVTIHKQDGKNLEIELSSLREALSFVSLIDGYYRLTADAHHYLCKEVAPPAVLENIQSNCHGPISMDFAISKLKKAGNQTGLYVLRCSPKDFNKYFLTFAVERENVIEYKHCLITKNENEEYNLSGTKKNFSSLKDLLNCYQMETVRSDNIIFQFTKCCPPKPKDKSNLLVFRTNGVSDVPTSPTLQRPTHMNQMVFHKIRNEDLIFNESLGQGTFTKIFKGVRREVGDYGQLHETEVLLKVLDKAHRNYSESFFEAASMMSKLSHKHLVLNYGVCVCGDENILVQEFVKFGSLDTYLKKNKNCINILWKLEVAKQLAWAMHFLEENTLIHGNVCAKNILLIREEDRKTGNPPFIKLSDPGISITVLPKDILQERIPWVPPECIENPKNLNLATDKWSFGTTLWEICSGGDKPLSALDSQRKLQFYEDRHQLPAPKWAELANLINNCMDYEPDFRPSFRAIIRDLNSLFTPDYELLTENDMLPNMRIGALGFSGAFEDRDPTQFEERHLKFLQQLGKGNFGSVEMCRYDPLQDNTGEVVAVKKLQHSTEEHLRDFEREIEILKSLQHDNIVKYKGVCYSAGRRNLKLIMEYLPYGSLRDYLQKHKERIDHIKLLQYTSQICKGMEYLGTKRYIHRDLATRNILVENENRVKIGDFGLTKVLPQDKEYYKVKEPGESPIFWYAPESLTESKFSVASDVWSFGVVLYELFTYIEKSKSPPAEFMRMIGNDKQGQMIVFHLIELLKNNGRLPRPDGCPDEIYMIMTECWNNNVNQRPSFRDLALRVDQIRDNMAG
Chain of JAK3 (P52333 whole entry): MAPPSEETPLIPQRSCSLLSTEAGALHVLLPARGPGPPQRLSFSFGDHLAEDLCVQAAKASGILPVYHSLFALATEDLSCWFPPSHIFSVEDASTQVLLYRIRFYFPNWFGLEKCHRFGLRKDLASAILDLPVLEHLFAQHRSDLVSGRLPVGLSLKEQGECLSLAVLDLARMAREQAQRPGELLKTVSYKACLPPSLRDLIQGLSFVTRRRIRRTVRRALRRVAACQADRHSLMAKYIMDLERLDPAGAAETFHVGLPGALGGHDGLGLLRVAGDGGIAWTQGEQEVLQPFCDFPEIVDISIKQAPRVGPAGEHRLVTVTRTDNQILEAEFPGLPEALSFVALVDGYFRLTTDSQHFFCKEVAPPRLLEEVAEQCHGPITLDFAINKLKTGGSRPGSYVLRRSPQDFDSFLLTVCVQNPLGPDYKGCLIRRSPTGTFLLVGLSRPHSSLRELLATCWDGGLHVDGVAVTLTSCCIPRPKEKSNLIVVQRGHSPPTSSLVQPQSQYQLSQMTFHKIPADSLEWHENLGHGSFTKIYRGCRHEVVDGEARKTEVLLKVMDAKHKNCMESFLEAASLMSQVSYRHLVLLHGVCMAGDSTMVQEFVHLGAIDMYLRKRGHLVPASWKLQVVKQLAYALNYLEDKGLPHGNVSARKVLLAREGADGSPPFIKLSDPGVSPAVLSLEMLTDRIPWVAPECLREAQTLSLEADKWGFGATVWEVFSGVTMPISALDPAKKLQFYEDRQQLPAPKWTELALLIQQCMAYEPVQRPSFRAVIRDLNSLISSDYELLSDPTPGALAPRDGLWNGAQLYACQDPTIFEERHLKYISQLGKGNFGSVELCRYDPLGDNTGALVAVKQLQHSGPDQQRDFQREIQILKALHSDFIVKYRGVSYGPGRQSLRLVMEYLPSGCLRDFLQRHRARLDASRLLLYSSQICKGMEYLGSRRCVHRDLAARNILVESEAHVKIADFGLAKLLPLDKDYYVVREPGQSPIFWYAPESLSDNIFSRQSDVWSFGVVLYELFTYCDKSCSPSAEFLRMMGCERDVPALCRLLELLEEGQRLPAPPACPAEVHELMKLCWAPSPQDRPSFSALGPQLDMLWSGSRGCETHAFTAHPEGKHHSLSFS
Chain of Tyk2 (P29597 whole entry): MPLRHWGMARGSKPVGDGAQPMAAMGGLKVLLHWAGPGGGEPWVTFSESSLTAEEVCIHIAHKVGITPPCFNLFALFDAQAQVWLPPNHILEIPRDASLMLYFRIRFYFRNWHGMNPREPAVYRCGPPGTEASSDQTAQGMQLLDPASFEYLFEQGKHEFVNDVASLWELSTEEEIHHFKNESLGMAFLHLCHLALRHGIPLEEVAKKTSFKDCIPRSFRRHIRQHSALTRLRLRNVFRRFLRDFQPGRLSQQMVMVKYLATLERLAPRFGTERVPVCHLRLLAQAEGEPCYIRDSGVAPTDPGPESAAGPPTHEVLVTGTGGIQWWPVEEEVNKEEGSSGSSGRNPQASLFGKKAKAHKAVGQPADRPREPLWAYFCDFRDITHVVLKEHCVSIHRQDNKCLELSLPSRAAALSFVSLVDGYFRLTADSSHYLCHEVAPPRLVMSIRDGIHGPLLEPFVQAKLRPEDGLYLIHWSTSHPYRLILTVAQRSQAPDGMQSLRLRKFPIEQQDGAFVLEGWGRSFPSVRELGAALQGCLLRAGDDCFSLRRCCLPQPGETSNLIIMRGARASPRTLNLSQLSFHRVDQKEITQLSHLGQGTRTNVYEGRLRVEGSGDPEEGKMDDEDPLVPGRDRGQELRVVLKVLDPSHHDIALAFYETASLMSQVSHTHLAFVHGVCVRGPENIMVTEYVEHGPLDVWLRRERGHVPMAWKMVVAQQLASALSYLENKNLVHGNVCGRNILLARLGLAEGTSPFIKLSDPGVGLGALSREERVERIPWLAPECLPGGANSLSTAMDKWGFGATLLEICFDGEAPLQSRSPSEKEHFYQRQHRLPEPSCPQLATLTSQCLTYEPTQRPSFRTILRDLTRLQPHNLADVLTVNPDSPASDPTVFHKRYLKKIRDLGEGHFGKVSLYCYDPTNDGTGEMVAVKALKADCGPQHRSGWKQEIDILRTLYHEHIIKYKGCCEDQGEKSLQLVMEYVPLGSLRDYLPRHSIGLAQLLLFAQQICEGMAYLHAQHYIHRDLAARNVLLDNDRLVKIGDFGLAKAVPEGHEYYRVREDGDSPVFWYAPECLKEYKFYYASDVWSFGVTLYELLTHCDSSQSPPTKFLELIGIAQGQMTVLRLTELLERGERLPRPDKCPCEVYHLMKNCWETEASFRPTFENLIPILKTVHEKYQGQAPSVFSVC
Chain of JAK1 (P23458 whole entry): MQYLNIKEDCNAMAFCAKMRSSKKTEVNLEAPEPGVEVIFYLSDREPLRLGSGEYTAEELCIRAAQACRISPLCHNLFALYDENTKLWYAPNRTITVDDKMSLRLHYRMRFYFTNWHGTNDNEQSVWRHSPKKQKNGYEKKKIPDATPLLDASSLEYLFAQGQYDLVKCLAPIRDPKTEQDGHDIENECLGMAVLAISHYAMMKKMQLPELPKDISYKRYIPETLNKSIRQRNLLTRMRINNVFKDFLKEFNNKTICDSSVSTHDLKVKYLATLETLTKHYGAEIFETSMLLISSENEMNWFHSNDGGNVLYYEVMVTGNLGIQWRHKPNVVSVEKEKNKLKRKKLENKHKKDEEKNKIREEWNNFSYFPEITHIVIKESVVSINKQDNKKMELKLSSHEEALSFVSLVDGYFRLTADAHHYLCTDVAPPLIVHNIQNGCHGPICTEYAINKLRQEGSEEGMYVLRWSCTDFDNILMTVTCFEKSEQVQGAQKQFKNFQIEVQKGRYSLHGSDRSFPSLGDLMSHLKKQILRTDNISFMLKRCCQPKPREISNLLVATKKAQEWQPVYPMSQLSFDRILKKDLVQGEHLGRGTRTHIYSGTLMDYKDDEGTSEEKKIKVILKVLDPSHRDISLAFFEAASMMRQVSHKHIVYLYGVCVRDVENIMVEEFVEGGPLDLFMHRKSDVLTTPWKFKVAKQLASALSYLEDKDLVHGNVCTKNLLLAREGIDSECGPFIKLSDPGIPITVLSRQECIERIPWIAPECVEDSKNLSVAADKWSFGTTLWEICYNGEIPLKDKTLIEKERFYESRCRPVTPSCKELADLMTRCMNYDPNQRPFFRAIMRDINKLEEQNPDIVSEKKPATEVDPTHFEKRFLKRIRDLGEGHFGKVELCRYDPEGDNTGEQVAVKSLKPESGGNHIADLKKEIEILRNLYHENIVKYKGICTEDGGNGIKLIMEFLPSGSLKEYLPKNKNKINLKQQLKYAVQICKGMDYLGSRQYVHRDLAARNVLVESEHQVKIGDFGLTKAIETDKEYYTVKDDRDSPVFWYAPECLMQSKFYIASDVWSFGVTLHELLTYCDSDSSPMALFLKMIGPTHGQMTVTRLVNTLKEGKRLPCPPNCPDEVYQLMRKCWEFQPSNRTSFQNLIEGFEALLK

Take `C=CC(=O)N1CCN(CCn2c(=O)ccc3cnc(Nc4ccc(N5CCN(C(=O)CSC)CC5)cc4)nc32)CC1` [Example 150]: in data set [1], the “JAK 3 (pKi)” value was “A (A represents a pKi value≥10 (Ki≤0.1 nM))” and the “JAK3 (pKi)-JAK1 (pKi)” value was “A (A represents a value of 3 or above)”. Further, the “JAK 2 (pKi)” value in data set [2] is listed as “E (E represents a pKi value of 7 or below (Ki of 100 nM or above))”. Besides, the “Caco Kp” value in data set [3] is listed as “A (A represents a value below 5×10^−6 cm/sec)”. Also, in data set [4], the “Tall-1 (pIC50)” value is “B (B represents a pC50 value between 6.7 (included) and 7.5 (IC50 between 200 nM and 32 nM))”. Also, in data set [5], the “Tyk 2 (pKi)” value is on record as “E (E represents a pKi value of 7 or below (Ki of 100 nM or above))”. Besides, the “JAK 1 (pKi)” value in data set [6] is reported as “E (E represents a pKi value of 7 or below (Ki of 100 nM or above))”. Moreover, in data set [7], the Kp is above 100.

Turning to `C=CC(=O)N1CCN(CCn2c(=O)ccc3cnc(Nc4ccc(N5CCN(C(C)=O)CC5)cc4)nc32)[C@@H](C)C1` [Example 155], in data set [1], the “JAK 3 (pKi)” value is “B (B represents pKi value between 9 and 10 (Ki between 1 nM and 0.1 nM))”; the “JAK3 (pKi)-JAK1 (pKi)” value was “A (A represents a value of 3 or above)”. Further, in data set [2], the “JAK 2 (pKi)” value was “E (E represents a pKi value of 7 or below (Ki of 100 nM or above))”. Further, the “Caco Kp” value in data set [3] is listed as “A (A represents a value below 5×10^−6 cm/sec)”. For the same molecule, the “Tall-1 (pIC50)” value in data set [4] is “B (B represents a pC50 value between 6.7 (included) and 7.5 (IC50 between 200 nM and 32 nM))”. The “Tyk 2 (pKi)” value in data set [5] is “E (E represents a pKi value of 7 or below (Ki of 100 nM or above))”. Also, the “JAK 1 (pKi)” value in data set [6] was “E (E represents a pKi value of 7 or below (Ki of 100 nM or above))”. In data set [7], the Kp is above 1000.

In the case of `C=CC(=O)N1CCN(CCn2c(=O)ccc3cnc(Nc4ccc(N5CCN(C(=O)CCSC)CC5)cc4)nc32)[C@@H](C)C1` [Example 171], in data set [1], the “JAK 3 (pKi)” value is “A (A represents a pKi value≥10 (Ki≤0.1 nM))” and the “JAK3 (pKi)-JAK1 (pKi)” value is “A (A represents a value of 3 or above)”. The “JAK 2 (pKi)” value in data set [2] is given as “E (E represents a pKi value of 7 or below (Ki of 100 nM or above))”. The “Caco Kp” value in data set [3] was “B (B represents a value between 5×10^−6 and 10×10^−6 cm/sec)”. For the same molecule, the “Tall-1 (pIC50)” value in data set [4] is “A (A represents a pIC50 value≥7.5 (IC50≤32 nM))”. Further, the “Tyk 2 (pKi)” value in data set [5] was “E (E represents a pKi value of 7 or below (Ki of 100 nM or above))”. Besides, in data set [6], the “JAK 1 (pKi)” value is given as “E (E represents a pKi value of 7 or below (Ki of 100 nM or above))”. Further, the Kp in data set [7] was above 1000.

Take `C=CC(=O)N1CCN(CCn2c(=O)ccc3cnc(Nc4ccc(N5CCN(C(=O)CSC)CC5)cc4)nc32)[C@@H](C)C1` [Example 173]: in data set [1], the “JAK 3 (pKi)” value was “B (B represents pKi value between 9 and 10 (Ki between 1 nM and 0.1 nM))”; the “JAK3 (pKi)-JAK1 (pKi)” value was “A (A represents a value of 3 or above)”. Moreover, the “JAK 2 (pKi)” value in data set [2] is recorded as “E (E represents a pKi value of 7 or below (Ki of 100 nM or above))”. The “Caco Kp” value in data set [3] is recorded as “A (A represents a value below 5×10^−6 cm/sec)”. Moreover, the “Tall-1 (pIC50)” value in data set [4] was “B (B represents a pC50 value between 6.7 (included) and 7.5 (IC50 between 200 nM and 32 nM))”. Besides, the “Tyk 2 (pKi)” value in data set [5] is “E (E represents a pKi value of 7 or below (Ki of 100 nM or above))”. Besides, the “JAK 1 (pKi)” value in data set [6] is “E (E represents a pKi value of 7 or below (Ki of 100 nM or above))”. The Kp in data set [7] is above 100.

`C=CC(=O)N1CCN(CCn2c(=O)ccc3cnc(Nc4ccc(N5CCN(C(=O)N(C)C)CC5)cc4)nc32)[C@@H](C)C1` [Example 174]: in data set [1], the “JAK 3 (pKi)” value was “B (B represents pKi value between 9 and 10 (Ki between 1 nM and 0.1 nM))”; the “JAK3 (pKi)-JAK1 (pKi)” value was “A (A represents a value of 3 or above)”. Also, in data set [2], the “JAK 2 (pKi)” value is “E (E represents a pKi value of 7 or below (Ki of 100 nM or above))”. Also, in data set [3], the “Caco Kp” value is “B (B represents a value between 5×10^−6 and 10×10^−6 cm/sec)”. Further, the “Tall-1 (pIC50)” value in data set [4] was “B (B represents a pC50 value between 6.7 (included) and 7.5 (IC50 between 200 nM and 32 nM))”. In data set [5], the “Tyk 2 (pKi)” value was “E (E represents a pKi value of 7 or below (Ki of 100 nM or above))”. Besides, the “JAK 1 (pKi)” value in data set [6] is recorded as “E (E represents a pKi value of 7 or below (Ki of 100 nM or above))”. For the same molecule, the Kp in data set [7] is above 14.

On to `C=CC(=O)N1CCN(CCn2c(=O)ccc3cnc(Nc4ccc(N5CCN(C(=O)COC)CC5)cc4)nc32)[C@@H](C)C1` [Example 175], for which, in data set [1], the “JAK 3 (pKi)” value is “B (B represents pKi value between 9 and 10 (Ki between 1 nM and 0.1 nM))”; the “JAK3 (pKi)-JAK1 (pKi)” value was “A (A represents a value of 3 or above)”. Also, the “JAK 2 (pKi)” value in data set [2] is given as “E (E represents a pKi value of 7 or below (Ki of 100 nM or above))”. In addition, the “Caco Kp” value in data set [3] is given as “A (A represents a value below 5×10^−6 cm/sec)”. Further, in data set [4], the “Tall-1 (pIC50)” value is “B (B represents a pC50 value between 6.7 (included) and 7.5 (IC50 between 200 nM and 32 nM))”. Moreover, the “Tyk 2 (pKi)” value in data set [5] is “E (E represents a pKi value of 7 or below (Ki of 100 nM or above))”. The “JAK 1 (pKi)” value in data set [6] is “E (E represents a pKi value of 7 or below (Ki of 100 nM or above))”. The Kp in data set [7] is above 100.
